# Laboratory results: paper PMC11520554, “The endocannabinoid ARA-S facilitates the activation of cardiac Kv7.1/KCNE1 channels from different species” (Channels, 2024)
# Read-outs that look alike come from different tables or passages of the source.
# How the values were obtained:
# guinea pig heart = tested on: guinea pig heart; set-up: method as in PMID 36796231; conditions: cited from earlier work
# [1] = tested on: Kv7.1/KCNE1 from all three species; test: Two-electrode voltage clamp, summary over channels from all three species; type: cell-based; conditions: predicted from fits, range over human, guinea pig and rabbit channels
# Source text: Isolation of Xenopus laevis oocytes was approved by the Linköping Animal Care and Use Committee (Permits #1941 and #14515) and conforms to national and international guidelines. All procedures conform to the guidelines from Directive 2010/63/EU of the European Parliament on the protection of animals used for scientific purposes. A total of 30 female adult (minimum 1 year of age) Xenopus laevis animals (from Nasco, WI, USA) underwent surgery to isolate oocytes. The frogs were anaesthetized for 15 minutes in a bath of 1.4 g/L MS-222 Sandoz (Ethyl 3-aminobenzoate methanesulfonate, Sigma Aldrich, Stockholm). The depth of anesthesia was monitored by checking for reflexes when the paws were pinched. […]
# Two-electrode voltage clamp recordings were performed at room temperature using a Dagan CA-1B amplifier (Dagan, MN, USA) or an AxoClamp 900A amplifier (Molecular Devices, CA, USA). […] ARA-S was applied until a stable effect on current amplitude was observed, achieved after approximately 10 minutes, monitored by running an application protocol stepping from a holding voltage of −80 mV to a test voltage of 0 mV every 10 seconds. […]
# (§1) To quantify the voltage dependence of channel opening, tail currents were measured shortly after stepping to the tail voltage and plotted against the preceding activation voltage. […]
# [2] = tested on: cannabinoid receptor 1 (CB1); set-up: method as in PMID 16467152, PMID 20649563; conditions: cited from earlier work
# [3] = biological target: rabbit Kv7.1/KCNE1 channel (Oryctolagus cuniculus, UniProt Q9MYS6); test: Two-electrode voltage clamp of Kv7.1/KCNE1 expressed in Xenopus laevis oocytes; type: cell-based
# Sequence of rabbit Kv7.1/KCNE1 channel (Q9MYS6 whole entry): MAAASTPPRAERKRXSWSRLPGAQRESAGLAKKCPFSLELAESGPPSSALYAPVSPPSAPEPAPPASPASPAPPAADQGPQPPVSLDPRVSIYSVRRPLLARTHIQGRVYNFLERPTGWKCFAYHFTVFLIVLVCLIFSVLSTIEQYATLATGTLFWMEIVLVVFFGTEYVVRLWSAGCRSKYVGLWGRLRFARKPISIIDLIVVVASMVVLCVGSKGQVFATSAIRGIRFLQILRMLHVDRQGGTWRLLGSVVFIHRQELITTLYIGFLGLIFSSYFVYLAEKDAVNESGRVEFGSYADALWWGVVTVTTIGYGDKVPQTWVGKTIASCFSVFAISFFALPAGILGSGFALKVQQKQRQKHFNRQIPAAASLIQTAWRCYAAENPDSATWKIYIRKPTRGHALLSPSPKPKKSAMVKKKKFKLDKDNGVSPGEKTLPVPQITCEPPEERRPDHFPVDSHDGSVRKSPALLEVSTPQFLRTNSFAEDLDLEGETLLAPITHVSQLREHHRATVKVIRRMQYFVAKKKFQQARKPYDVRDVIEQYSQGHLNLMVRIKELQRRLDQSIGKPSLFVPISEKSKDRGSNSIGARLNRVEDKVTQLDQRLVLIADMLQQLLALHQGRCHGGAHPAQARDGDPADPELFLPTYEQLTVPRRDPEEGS
# Sequence of rabbit Kv7.1/KCNE1 channel (Q28705 whole entry partner): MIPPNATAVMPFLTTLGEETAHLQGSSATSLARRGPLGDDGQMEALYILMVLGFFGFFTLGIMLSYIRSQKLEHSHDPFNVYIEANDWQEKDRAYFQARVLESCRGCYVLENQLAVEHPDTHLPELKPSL
# Source text: (§2) Isolation of Xenopus laevis oocytes was approved by the Linköping Animal Care and Use Committee (Permits #1941 and #14515) and conforms to national and international guidelines. All procedures conform to the guidelines from Directive 2010/63/EU of the European Parliament on the protection of animals used for scientific purposes. A total of 30 female adult (minimum 1 year of age) Xenopus laevis animals (from Nasco, WI, USA) underwent surgery to isolate oocytes. The frogs were anaesthetized for 15 minutes in a bath of 1.4 g/L MS-222 Sandoz (Ethyl 3-aminobenzoate methanesulfonate, Sigma Aldrich, Stockholm). The depth of anesthesia was monitored by checking for reflexes when the paws were pinched. A small incision was made on the abdomen to expose lobes of oocytes, which were collected using a surgical scissor. The small incision was closed with suture and local anesthesia (Marcain 5 mg/ml and Xylocain 2%, Distansapoteket, Stockholm) topically applied to relieve pain subsequent to surgery. At the experimental endpoint (in association with the 6th surgery), animals were sacrificed by decapitation under deep anesthesia (which was induced by the bath of 1.4 g/L MS-222 Sandoz). ARRIVE guidelines were followed. Note that experiments were performed on isolated oocytes only (no in vivo experiments were performed). Oocytes were isolated and maintained as previously described. The constructs used had the following accession numbers: human Kv7.1: NM_000218; human KCNE1: NM_000219; guinea pig Kv7.1: NM_001172821.1; guinea pig KCNE1: NM_001172972.1; rabbit Kv7.1: XM_008252197.2; rabbit KCNE1: NM_001109822. Oocytes were injected with RNA for human, guinea pig or rabbit Kv7.1 and KCNE1. The amounts injected were 12.5 ng of human Kv7.1 and 7.5 ng of human KCNE1, 1.25 ng of guinea pig Kv7.1 and 1.25 ng of guinea pig KCNE1, and 0.9 ng of rabbit Kv7.1 and 0.55 ng of rabbit KCNE1. Following injection, the oocytes were generally incubated at 16°C for 1 to 2 days.
# (§3) Two-electrode voltage clamp recordings were performed at room temperature using a Dagan CA-1B amplifier (Dagan, MN, USA) or an AxoClamp 900A amplifier (Molecular Devices, CA, USA). All chemicals are from Sigma-Aldrich (Stockholm, Sweden), unless stated otherwise. N-arachidonoyl-L-serine (ARA-S) was bought from Cayman Chemicals (MI, USA) and delivered as a stock solution of 26 mM in EtOH from the supplier. The stock solution was stored at −20°C according to supplier instructions. The control solution contained (in mM): 88 NaCl, 1 KCl, 0.4 CaCl2, 0.8 MgCl2, and 15 HEPES (with pH set to 7.4 using NaOH). For ARA-S experiments, the control solution was supplemented with indicated concentrations of ARA-S. The holding voltage was set to −80 mV. Activation curves were generally generated in steps between −80 and + 60 or +80 mV in increments of 10 mV (5-s duration). The tail voltage was set to −20 or −30 mV. Control solution or ARA-S supplemented solution was continuously perfused into the oocyte chamber at a speed of 1 mL/min using a Minipuls 3 peristaltic pump (Gilson, WI, USA). ARA-S was applied until a stable effect on current amplitude was observed, achieved after approximately 10 minutes, monitored by running an application protocol stepping from a holding voltage of −80 mV to a test voltage of 0 mV every 10 seconds. In the time-matched control experiments for rabbit and guinea pig channels, experiments were performed in a similar way as with ARA-S but with EtOH only; i.e. the first control recording was performed in control solution (no vehicle) and the subsequent recordings done with vehicle only added (i.e. EtOH but no ARA-S). The tubing system and recording chamber were cleaned between cells with 70% EtOH and distilled H2O.
# as §1
# [4] = biological target: T1, human Kv7.1/KCNE1 channel (Homo sapiens, UniProt P51787); test: as above; type: cell-based
# T1 construct: expressed in transfected cells; host or cells: Xenopus laevis oocytes (RNA injection)
# Source text: as §2, §3, §1
# [5] = biological target: guinea pig Kv7.1/KCNE1 channel (Cavia porcellus, UniProt A6Y9U2); test: as above; type: cell-based
# Source text: as §2, §3, §1
# [6] = biological target: T1, human Kv7.1/KCNE1 channel; set-up: method as in PMID 36796231; conditions: cited from earlier work
# CB2 = tested on: CB2; set-up: method as in PMID 16467152, PMID 20649563; conditions: at concentrations as high as 30 µM; cited from earlier work
# TRPV1 channels = tested on: TRPV1 channels; set-up: method as in PMID 16467152, PMID 20649563; conditions: at concentrations as high as 30 µM; cited from earlier work
# [7] = tested on: rabbit Kv7.1/KCNE1 channels; set-up: method as in PMID 34601592; conditions: compared between human and rabbit channels; cited from earlier work
# [8] = tested on: human Kv7.1/KCNE1 channels; set-up: method as in PMID 34601592; conditions: compared between human and rabbit channels; cited from earlier work
# [9] = tested on: guinea pig-like Kv7.1/KCNE1 channel; set-up: method as in PMID 32223014; conditions: cited from earlier work
# [10] = best fit, 0 mV, read-out: EC50 for current amplitude (Iamp) at 0 mV
# [11] = best fit, 20 mV, read-out: EC50 for current amplitude (Iamp) at 20 mV
# [12] = best fit, 20 mV, read-out: ΔIamp, 20 mV, max
# [13] = best fit, 40 mV, read-out: EC50 for current amplitude (Iamp) at 40 mV
smiles,measurement,setting,value
"CCCCC/C=C\C/C=C\C/C=C\C/C=C\CCCC(=O)NC(CO)C(=O)O (stereo in doubt) [ARA-S, N-arachidonoyl-L-serine]",effect on prolonged QT interval,guinea pig heart,reversed
same,effect on prolonged action potential duration,guinea pig heart,reversed
same,anticipated maximal effect on V50,[1],−60 to −80 mV
same,EC50,[1]; read-out: concentration required to reach 50% of the maximal effect on V50,3 to 9 µM
same,binding to cannabinoid receptor 1 (CB1),[2],bind only weakly
same,EC50,"[3]; best fit of concentration-response, n = 6-7, read-out: EC50 for the V50 effect",3.1 µM
same,EC50,[3]; [10],2.2 µM
same,Emax,"[3]; best fit, 0 mV, read-out: ΔIamp, 0 mV, max",515%
same,EC50,[3]; [11],1.2 µM
same,Emax,[3]; [12],225%
same,"ΔV50, max","[3]; best fit, maximal shift in V50",−60.5 mV
same,Itailmax;ARA-S,"[3]; representative cell, 10 µM ARA-S (Itailmax;ctrl = 3.7 µA)",5.7 µA
same,V50;ARA-S,"[3]; representative cell, 10 µM ARA-S (V50;ctrl = +23.9 mV)",−33.5 mV
same,ARA-S effect on current amplitude at 0 mV reversed upon washout,"[4]; 10 µM of ARA-S, n = 5, mean ± sem",50 ± 5%
same,Itailmax;ARA-S,"[4]; representative cell, 10 µM ARA-S (Itailmax;ctrl = 6.2 µA)",10.1 µA
same,V50;ARA-S,"[4]; representative cell, 10 µM ARA-S (V50;ctrl = +30.2 mV)",−23.0 mV
same,EC50,"[5]; best fit of concentration-response, n = 5-8, read-out: EC50 for the V50 effect",6.2 µM
same,EC50,[5]; [10],4.7 µM
same,EC50,[5]; [11],3 µM
same,Emax,[5]; [12],733%
same,EC50,[5]; [13],4.2 µM
same,Emax,"[5]; best fit, 40 mV, read-out: ΔIamp, 40 mV, max",631%
same,Emax,"[5]; best fit, maximal change in GMAX, channel has time-dependent GMAX run-up, read-out: ΔGMAX, max",188%
same,"ΔV50, max","[5]; best fit, maximal shift in V50",−70.4 mV
same,EC50,"[5]; best fit, read-out: EC50 for the maximal conductance (GMAX) effect",1.6 µM
same,Itailmax;ARA-S,"[5]; representative cell, 10 µM ARA-S (Itailmax;ctrl = 4.4 µA)",11.2 µA
same,V50;ARA-S,"[5]; representative cell, 10 µM ARA-S (V50;ctrl = +44.1 mV)",−17.5 mV
same,EC50,"[6]; best fit of concentration-response, human data duplicated, read-out: EC50 for the V50 effect",8.9 µM
same,"ΔIamp, 0 mV, max","[6]; best fit, 0 mV",+497%
same,EC50,[6]; [10],2 µM
same,"ΔIamp, 20 mV, max","[6]; best fit, 20 mV",+197%
same,EC50,[6]; [11],1.4 µM
same,"ΔIamp, 40 mV, max","[6]; best fit, 40 mV",+58%
same,EC50,[6]; [13],0.6 µM
same,"ΔGMAX, max","[6]; best fit, maximal change in GMAX",+83%
same,"ΔV50, max","[6]; best fit, maximal shift in V50, human data duplicated",−79.6 mV
same,EC50,"[6]; best fit, human data duplicated, read-out: EC50 for the maximal conductance (GMAX) effect",5.7 µM
same,binding to CB2,CB2,no detectable binding
same,binding to TRPV1 channels,TRPV1 channels,no detectable binding
"CC/C=C\C/C=C\C/C=C\C/C=C\C/C=C\C/C=C\CCC(=O)O [DHA, docosahexaenoic acid]",effects on channel,[7],largely comparable activating effects
same,effects on channel,[8],largely comparable activating effects
"CCCCC/C=C\C/C=C\CCCCCCCC(=O)NCC(=O)O [Lin-Gly, linoleoyl glycine]",effects on channel compared to the human Kv7.1/KCNE1 channel,[9],impaired effects
